Like-named read-outs stand apart in the source and are kept apart here.
Assays:
[1] = system: Leptosphaeria nodorum—LEPTNO; assay: Glume Blotch of Wheat, in vivo whole plant, 24 Hour Protectant
Septoria tritici—SEPTTR = assay: Leaf Blotch of Wheat, in vivo whole plant, 24 Hour Protectant
[2] = system: Stagonospora nodorum (Leptosphaeria nodorum—LEPTNO); assay: In vitro fungal growth inhibition, Stagonospora nodorum (LEPTNO); format: cell-based; settings: Leptosphaeria, read-out: LEPTNO in vitro Growth Inhibition
[3] = system: Mycosphaerella graminicola (Septoria tritici—SEPTTR); assay: In vitro fungal growth inhibition, Mycosphaerella graminicola (SEPTTR); format: cell-based; settings: Zymoseptoria tritici, read-out: SEPTTR in vitro Growth Inhibition
Erysiphe graminis—ERYSGT = assay: Powdery Mildew of Wheat, in vivo whole plant, 24 Hour Protectant
[4] = system: Phytophthora infestans—PHYTIN; assay: whole plant or invertebrate; format: in vivo; settings: Phytophthora, in Solanum lycopersicum, 24 h, read-out: PHYTIN in vivo 1 Day Protectant
[5] = system: Magnaporthe grisea (Pyricularia oryzae—PYRIOR); assay: microbe, parasite or virus in culture; format: cell-based; settings: Pyricularia oryzae, read-out: PYRIOR in vitro Growth Inhibition
[6] = system: Rhizoctonia solani (RHIZSO); assay: microbe, parasite or virus in culture; format: cell-based; settings: Rhizoctonia solani, read-out: RHIZSO in vitro Growth Inhibition
Ustilago maydis (USTIMA) = assay: microbe, parasite or virus in culture; format: cell-based; settings: Mycosarcoma maydis, read-out: USTIMA in vitro Growth Inhibition
[7] = system: Puccinia recondita—PUCCRT; assay: Brown Rust of Wheat, in vivo whole plant, 24 Hour Protectant
[8] = system: Phytophthora infestans (PHYTIN); assay: microbe, parasite or virus in culture; format: cell-based; settings: Phytophthora infestans, read-out: PHYTIN in vitro Growth Inhibition
[9] = Leptosphaeria; 100 ppm spray, 24 hour protectant, wheat; control of fungal infection vs untreated plants; read-out: LEPTNO in vivo 1 Day Protectant
[10] = Zymoseptoria tritici, 24 h, 100 ppm spray, 24 hour protectant, wheat; control of fungal infection vs untreated plants; read-out: SEPTTR in vivo 1 Day Protectant
[11] = Erysiphe; 100 ppm spray, 24 hour protectant, wheat; control of fungal infection vs untreated plants; read-out: ERYSGT in vivo 1 Day Protectant
[12] = Puccinia; 100 ppm spray, 24 hour protectant, wheat; control of fungal infection vs untreated plants; read-out: PUCCRT in vivo 1 Day Protectant
[13] = 100 ppm spray, 24 hour protectant, wheat; control of fungal infection vs untreated plants

| SMILES | pest or weed control at 100 ppm [1, 9] [%] | pest or weed control at 100 ppm (Septoria tritici—SEPTTR; [10]) [%] | inhibition at 25 ppm ([2]; 25 ppm in growth medium) [%] | inhibition at 25 ppm ([3]; 25 ppm in growth medium) [%] | pest or weed control at 100 ppm (Erysiphe graminis—ERYSGT; [11]) [%] | pest or weed control at 100 ppm [4] [%] | inhibition at 25 ppm [5] [%] | inhibition at 25 ppm [6] [%] | inhibition at 25 ppm (Ustilago maydis (USTIMA)) [%] | pest or weed control at 100 ppm [7, 12] [%] | inhibition at 25 ppm [8] [%] | SEPTTR in vivo 1 Day Protectant (Septoria tritici—SEPTTR; [13]) | PUCCRT in vivo 1 Day Protectant [7, 13] | LEPTNO in vivo 1 Day Protectant [1, 13] | inhibition at 25 ppm [2] [%] | inhibition at 25 ppm [3] [%] | pest or weed control at 100 ppm ([1]; Leptosphaeria; 100 ppm spray, wheat, 24 hour protectant; control of fungal infection vs untreated plants; read-out: LEPTNO in vivo 1 Day Protectant) [%] | SEPTTR in vivo 1 Day Protectant (Septoria tritici—SEPTTR; 100 ppm spray, wheat, 24 hour protectant; control of fungal infection vs untreated plants) | pest or weed control at 100 ppm (Erysiphe graminis—ERYSGT; Erysiphe; 100 ppm spray, wheat, 24 hour protectant; control of fungal infection vs untreated plants; read-out: ERYSGT in vivo 1 Day Protectant) [%] | pest or weed control at 100 ppm ([7]; Puccinia; 100 ppm spray, wheat, 24 hour protectant; control of fungal infection vs untreated plants; read-out: PUCCRT in vivo 1 Day Protectant) [%] |
| --- | --- | --- | --- | --- | --- | --- | --- | --- | --- | --- | --- | --- | --- | --- | --- | --- | --- | --- | --- | --- |
| COc1ccnc(C(=O)N[C@@H]2CC3CC2C2C(=O)N(CC(C)C)C(=O)C32)c1O (stereo partly shown) [Compound 303] | 25 to 74 | 25 to 74 | < 80 | < 80 | < 25 | 25 to 74 | < 80 | < 80 | < 80 | < 25 | < 80 | – | – | – | – | – | – | – | – | – |
| COc1ccnc(C(=O)NC2C3CC4C(C3Cl)C42)c1O (stereo not shown) [Compound 304] | 25 to 74 | – | < 80 | < 80 | < 25 | < 25 | < 80 | > 80 | < 80 | < 25 | < 80 | + + | – | – | – | – | – | – | – | – |
| COc1ccnc(C(=O)NC2CCN(C(=O)CCc3ccccc3)CC2)c1O [Compound 309] | 25 to 74 | < 25 | < 80 | < 80 | 25 to 74 | < 25 | < 80 | < 80 | < 80 | < 25 | < 80 | – | – | – | – | – | – | – | – | – |
| COc1ccnc(C(=O)NC2COC(C)C2)c1O (stereo not shown) [Compound 310] | < 25 | < 25 | < 80 | < 80 | 25 to 74 | < 25 | < 80 | < 80 | < 80 | < 25 | < 80 | – | – | – | – | – | – | – | – | – |
| COc1ccnc(C(=O)NC2C[C@H](C)O[C@@](C)(Cc3ccccc3)C2)c1O (stereo partly shown) [Compound 312] | 25 to 74 | 25 to 74 | < 80 | < 80 | 25 to 74 | < 25 | < 80 | < 80 | < 80 | < 25 | < 80 | – | – | – | – | – | – | – | – | – |
| COc1ccnc(C(=O)NC2C[C@H](C)O[C@](C)(Cc3ccccc3)C2)c1O (stereo partly shown) [Compound 313] | 25 to 74 | 25 to 74 | < 80 | < 80 | 25 to 74 | < 25 | < 80 | < 80 | < 80 | 25 to 74 | < 80 | – | – | – | – | – | – | – | – | – |
| CCC1(C)OCC(NC(=O)c2nccc(OC)c2O)CO1 (stereo not shown) [Compound 314] | 25 to 74 | < 25 | < 80 | < 80 | < 25 | < 25 | < 80 | < 80 | < 80 | < 25 | < 80 | – | – | – | – | – | – | – | – | – |
| COc1ccnc(C(=O)NC2COC3(CC(C)(C)CC(C)(C)C3)OC2)c1O [Compound 315] | 25 to 74 | < 25 | < 80 | < 80 | < 25 | < 25 | < 80 | < 80 | < 80 | < 25 | < 80 | – | – | – | – | – | – | – | – | – |
| COc1ccnc(C(=O)N[C@H]2CO[C@H](C(C)Cc3ccc(C(C)(C)C)cc3)OC2)c1O (stereo partly shown) [Compound 316] | 25 to 74 | < 25 | > 80 | < 80 | < 25 | < 25 | > 80 | < 80 | > 80 | – | < 80 | – | + + | – | – | – | – | – | – | – |
| COc1ccnc(C(=O)N[C@H]2CO[C@@H](C(C)Cc3ccc(C(C)(C)C)cc3)OC2)c1O (stereo partly shown) [Compound 317] | < 25 | < 25 | < 80 | < 80 | < 25 | 25 to 74 | < 80 | < 80 | < 80 | – | < 80 | – | + + | – | – | – | – | – | – | – |
| COc1ccnc(C(=O)N[C@H]2CO[C@@](C)(C(C)CC3=C(C)CCCC3(C)C)OC2)c1O (stereo partly shown) [Compound 318] | 25 to 74 | 25 to 74 | > 80 | > 80 | < 25 | 25 to 74 | < 80 | > 80 | < 80 | 25 to 74 | > 80 | – | – | – | – | – | – | – | – | – |
| COc1ccnc(C(=O)N[C@H]2CC3OC2[C@H](C)[C@@H](OCc2ccccc2)[C@H]3C)c1O (stereo partly shown) [Compound 321] | < 25 | < 25 | < 80 | < 80 | < 25 | < 25 | < 80 | < 80 | < 80 | 25 to 74 | < 80 | – | – | – | – | – | – | – | – | – |
| COCCCc1ccc2c(c1)OC(C)C(NC(=O)c1nccc(OC)c1O)C2=O (stereo not shown) [Compound 322] | 25 to 74 | 25 to 74 | > 80 | < 80 | 25 to 74 | < 25 | < 80 | > 80 | < 80 | 25 to 74 | < 80 | – | – | – | – | – | – | – | – | – |
| COc1ccnc(C(=O)NC2C(=O)c3ccc(-c4ccco4)cc3OC2C)c1O (stereo not shown) [Compound 323] | – | – | > 80 | > 80 | < 25 | < 25 | > 80 | > 80 | < 80 | 25 to 74 | < 80 | + + | – | + + | – | – | – | – | – | – |
| COc1ccnc(C(=O)NC2C3CSC2CN(Cc2ccccc2)C3)c1O (stereo not shown) [Compound 325] | 25 to 74 | < 25 | < 80 | < 80 | < 25 | < 25 | < 80 | < 80 | < 80 | < 25 | < 80 | – | – | – | – | – | – | – | – | – |
| COc1ccnc(C(=O)N[C@@H]2C[C@@H](O[Si](C)(C)C(C)(C)C)O[C@@H](C)[C@@H]2OC)c1O [Compound 326] | 25 to 74 | – | – | – | < 25 | < 25 | < 80 | < 80 | < 80 | < 25 | < 80 | + + | – | – | < 80 | < 80 | – | – | – | – |
| COc1ccnc(C(=O)N[C@@H]2C[C@@H](O[Si](C)(C)C(C)(C)C)O[C@@H](C)[C@@H]2OCc2ccccc2)c1O [Compound 327] | – | – | – | – | – | 25 to 74 | < 80 | < 80 | < 80 | – | < 80 | – | – | – | < 80 | < 80 | 25 to 74 | + + | < 25 | < 25 |

Reference: patent US6706740B2, “Fungicidal heterocyclic aromatic amides and their compositions, methods of use and preparation” (Dow AgroSciences LLC, priority 1999, dated 2004)
